Data as given in PMC12736255, “Reinvestigating Pyrrol-2-One-Based Compounds: From Antimicrobial Agents to Promising Antitumor Candidates” (Pharmaceuticals, 2025).

Assays:
[1] = system: M14; experiment: NCI-60 5-dose screen; type: cell-based, human
[2] = system: HS 578T; experiment: NCI-60 5-dose screen; type: cell-based, human
[3] = system: HCT-116; experiment: NCI-60 5-dose screen; type: cell-based, human
[4] = system: COLO 205; experiment: NCI-60 5-dose screen; type: cell-based, human
[5] = system: RXF 393; experiment: NCI-60 5-dose screen; type: cell-based, human
[6] = system: A549/ATCC; experiment: NCI-60 5-dose screen; type: cell-based, human
[7] = system: SK-OV-3; experiment: NCI-60 5-dose screen; type: cell-based, human
[8] = system: U251; experiment: NCI-60 5-dose screen; type: cell-based, human
[9] = system: BT-549; experiment: NCI-60 5-dose screen; type: cell-based, human
[10] = system: SF-268; experiment: NCI-60 5-dose screen; type: cell-based, human
[11] = system: HL-60(TB); experiment: NCI-60 5-dose screen; type: cell-based, human
[12] = system: MDA-MB-231/ATCC; experiment: NCI-60 5-dose screen; type: cell-based, human
[13] = system: CAKI-1; experiment: NCI-60 5-dose screen; type: cell-based, human
[14] = system: MOLT-4; experiment: NCI-60 5-dose screen; type: cell-based, human
[15] = system: HT29; experiment: NCI-60 5-dose screen; type: cell-based, human
[16] = system: CCRF-CEM; experiment: NCI-60 5-dose screen; type: cell-based; settings: Homo sapiens
[17] = system: MDA-MB-468; experiment: NCI-60 5-dose screen; type: cell-based, human
[18] = system: MALME-3M; experiment: NCI-60 5-dose screen; type: cell-based, human
[19] = system: IGROV1; experiment: NCI-60 5-dose screen; type: cell-based, human
[20] = system: SW-620; experiment: NCI-60 5-dose screen; type: cell-based, human
[21] = system: OVCAR-3; experiment: NCI-60 5-dose screen; type: cell-based, human
[22] = system: U-118MG; experiment: CellTiter-Glo 2.0 cytotoxicity, glioblastoma; type: cell-based, human; settings: 50 µM, 24 h
Experimental: Cytotoxicity of compounds was assessed using the CellTiter-Glo® 2.0 Assay (Promega, Madison, WI, USA) on human gingival fibroblasts (HGF), osteosarcoma (HOS and MG-63) and glioblastoma (LN-229 and U-118MG) cells, according to the manufacturer’s instructions. HGF, HOS, MG-63 and U-118MG cells were purchased from Cytion GmbH, Eppelheim, Germany, and LN-229 (CRL-2611) from the American Type Culture Collection (ATCC), Manassas, VA, USA. Cells were seeded (50,000 cells/mL—HGF, 100,000 cells/mL—tumor cells) into 96-well opaque white tissue culture-treated plates and allowed to adhere overnight in αMEM medium with 10% fetal bovine serum and 1% antibiotic-antimycotic (all from PAN—Biotech GmbH, Aidenbach, Germany). Cells were incubated with compounds (10 or 50 µM) for 24 h, then CellTiter-Glo® reagent was added and luminescence was recorded using a FLUOstar® Omega microplate reader (BMG LABTECH, Ortenberg, Germany). The experiments were carried out in triplicate, and the viability of treated cells was expressed as a percentage of the viability of control cells (untreated). Data were represented as means ± standard deviations. Stock solutions of compounds were prepared in DMSO, then diluted in complete cell culture media. […] Data were analyzed with independent two-tailed (Student’s) t-test, considering p < 0.05 statistically significant.

[23] = system: SNB-75; experiment: NCI-60 5-dose screen; type: cell-based, human
[24] = system: LOX IMVI; experiment: NCI-60 5-dose screen; type: cell-based, human
[25] = system: ACHN; experiment: NCI-60 5-dose screen; type: cell-based, human
[26] = system: HOP-62; experiment: NCI-60 5-dose screen; type: cell-based, human
[27] = system: OVCAR-4; experiment: NCI-60 5-dose screen; type: cell-based, human
[28] = system: SR; experiment: NCI-60 5-dose screen; type: cell-based, human
[29] = Homo sapiens, read-out: LC50 (the source's name)

Structure (SMILES): O=C1C(Nc2ccc(I)cc2)=CC(c2ccc(C(F)(F)F)cc2)N1c1ccc(I)cc1 (stereo not drawn) [3e]
- TGI [1]: >100 µM
- GI50 ([1]; Homo sapiens): 8.94 µM
- CC50 [1, 29]: > 100 µM
- TGI [2]: 9.97 µM
- GI50 ([2]; Homo sapiens): 3.45 µM
- CC50 [2, 29]: > 100 µM
- TGI [3]: >100 µM
- GI50 ([3]; Homo sapiens): 5.92 µM
- CC50 [3, 29]: > 100 µM
- TGI [4]: >100 µM
- GI50 ([4]; Homo sapiens): 4.57 µM
- CC50 [4, 29]: > 100 µM
- TGI [5]: >100 µM
- GI50 ([5]; Homo sapiens): 4.23 µM
- CC50 [5, 29]: > 100 µM
- TGI [6]: >100 µM
- GI50 ([6]; Homo sapiens): > 100 µM
- CC50 [6, 29]: > 100 µM
- TGI [7]: >100 µM
- GI50 ([7]; Homo sapiens): > 100 µM
- CC50 [7, 29]: > 100 µM
- TGI [8]: >100 µM
- GI50 ([8]; Homo sapiens, U-251): 8.97 µM
- LC50 (50% lethal concentration) ([8]; Homo sapiens, U-251): > 100 µM
- TGI [9]: >100 µM
- GI50 ([9]; Homo sapiens): 9.61 µM
- CC50 [9, 29]: > 100 µM
- TGI [10]: >100 µM
- GI50 ([10]; Homo sapiens): 4.66 µM
- CC50 [10, 29]: > 100 µM
- TGI [11]: >100 µM
- GI50 ([11]; Homo sapiens): 4.48 µM
- CC50 [11, 29]: > 100 µM
- TGI [12]: >100 µM
- GI50 ([12]; Homo sapiens): 5.36 µM
- CC50 [12, 29]: > 100 µM
- TGI [13]: >100 µM
- GI50 ([13]; Homo sapiens): 3.72 µM
- CC50 [13, 29]: > 100 µM
- TGI [14]: >100 µM
- GI50 ([14]; Homo sapiens): 2.92 µM
- CC50 [14, 29]: > 100 µM
- TGI [15]: >100 µM
- GI50 ([15]; Homo sapiens, HT-29): > 100 µM
- CC50 ([15]; Homo sapiens, HT-29, read-out: LC50 (the source's name)): > 100 µM
- GI50 [16]: 3.35 µM
- CC50 ([16]; read-out: LC50 (the source's name)): > 100 µM
- TGI [17]: >100 µM
- GI50 ([17]; Homo sapiens): 3.24 µM
- CC50 [17, 29]: > 100 µM
- GI50 ([18]; Homo sapiens, Malme-3M): 2 µM
- CC50 ([18]; Homo sapiens, Malme-3M, read-out: LC50 (the source's name)): 9.34 µM
- TGI ([18]; MALME-3M): 4.32 µM
- TGI [19]: >100 µM
- GI50 ([19]; Homo sapiens, IGROV-1): > 100 µM
- CC50 ([19]; Homo sapiens, IGROV-1, read-out: LC50 (the source's name)): > 100 µM
- TGI [20]: >100 µM
- GI50 ([20]; Homo sapiens): > 100 µM
- CC50 [20, 29]: > 100 µM
- TGI [21]: >100 µM
- GI50 ([21]; Homo sapiens): 7.48 µM
- CC50 [21, 29]: > 100 µM
- cytotoxicity (activity in words) [22]: moderate activity
- TGI [23]: 5.06 µM
- GI50 ([23]; Homo sapiens): 2.6 µM
- CC50 [23, 29]: 9.85 µM
- TGI [24]: >100 µM
- GI50 ([24]; Homo sapiens): > 100 µM
- CC50 [24, 29]: > 100 µM
- TGI [25]: >100 µM
- GI50 ([25]; Homo sapiens): 4.05 µM
- CC50 [25, 29]: > 100 µM
- TGI [26]: >100 µM
- GI50 ([26]; Homo sapiens): > 100 µM
- CC50 [26, 29]: > 100 µM
- TGI [27]: 4.41 µM
- GI50 ([27]; Homo sapiens): 1.82 µM
- CC50 [27, 29]: > 100 µM
- TGI [28]: >100 µM
- GI50 ([28]; Homo sapiens): 2.84 µM
- CC50 [28, 29]: > 100 µM
